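Cells were grown in 96-well plates and exposed to each compound for 48 hours at five concentrations; endpoints were interpolated linearly between bracketing concentrations, or set to the highest concentration if not reached. TGI: concentration producing complete growth inhibition.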
What was measured:
Test in all cases: NCI tumour cell line growth inhibition, 48 h
[1] = system: A498 renal
[2] = system: A549 NSCLC
[3] = system: CCRF-CEM leukemia
[4] = system: COLO 205 colon
[5] = system: DLD-1 colon
[6] = system: DMS 114 small cell lung
[7] = system: DMS 273 small cell lung
[8] = system: EKVX NSCLC
[9] = system: HCC-2998 colon
[10] = system: HCT-116 colon
[11] = system: HCT-15 colon
[12] = system: HL-60(TB) leukemia
[13] = system: HOP-18 NSCLC
[14] = system: HOP-62 NSCLC
[15] = system: HT29 colon
[16] = system: IGROV1 ovarian
[17] = system: K-562 leukemia
[18] = system: KM12 colon
[19] = system: KM20L2 colon
[20] = system: LOX IMVI melanoma
[21] = system: M19-MEL melanoma
[22] = system: MALME-3M melanoma
[23] = system: MCF7 breast
[24] = system: MOLT-4 leukemia
[25] = system: NCI-H226 lung
[26] = system: NCI-H23 lung
[27] = system: NCI-H460 lung
[28] = system: NCI-H522 lung
[29] = system: NCI/ADR-RES ovarian
[30] = system: OVCAR-3 ovarian
[31] = system: OVCAR-4 ovarian
[32] = system: OVCAR-5 ovarian
[33] = system: OVCAR-8 ovarian
[34] = system: P388 leukemia
[35] = system: P388/ADR leukemia
[36] = system: RPMI-8226 leukemia
[37] = system: RXF 393 renal
[38] = system: SF-268 CNS
[39] = system: SF-295 CNS
[40] = system: SF-539 CNS
[41] = system: SK-MEL-2 melanoma
[42] = system: SK-MEL-28 melanoma
[43] = system: SK-MEL-5 melanoma
[44] = system: SK-OV-3 ovarian
[45] = system: SN12C renal
[46] = system: SN12K1 renal
[47] = system: SNB-19 CNS
[48] = system: SNB-75 CNS
[49] = system: SNB-78 CNS
[50] = system: SW-620 colon
[51] = system: U251 CNS
[52] = system: UACC-257 melanoma
[53] = system: UACC-62 melanoma
[54] = system: UO-31 renal
[55] = system: XF 498 CNS

Measured: TGI

CCC1CN2CCC1CC2 (stereo not given)
> 100 µM: all assays above
